Data set [1] has as its system HMC-1-8. Description: Antiproliferation assay (Assay 7), HMC-1-8. It counts as cell-based. Particulars: CellTiter-Glo, several values per example, read-out: Antiproli HMC-1-8 [M] IC50. In a few lines:
(§1)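 Luminescent ATP-based viability (CellTiter-Glo) measured after 72 hours of compound treatment at 37° C, alongside a time-zero plate read on the day of plating.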
In general terms: In ATP-based viability assays light output follows the ATP content of the culture.

Data set [2] concerns SUDHL5. Briefly: Induction of cytotoxicity (Assay 6), SUDHL5. To be noted: read-out: Cytotox SUDHL5 [M] (median) IC50, CellTiter-Glo, 5 hours, SUDHL5.
Data set [3] concerns SUDHL5. Briefly: Induction of caspase-3/7 activity (Assay 4), SUDHL5. It counts as cell-based. Particulars: caspase-3/7 induction, 3 hours, median. The method, boiled down:
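Caspase-3/7 activity measured by Caspase-Glo 3/7 luminescence in DLBCL cells after 3 h compound treatment at 37 °C. Medium-only background subtracted. EC50 fitted with C0 fixed at 1 and top set to the reference compound's plateau/max induction.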

Data set [4] concerns SUDHL5. Description: Antiproliferation assay (Assay 7), SUDHL5. Particulars: CellTiter-Glo, 72 hours, median, read-out: Antiproli SUDHL5 [M] (median) IC50. Format: cell-based. In a few lines: as §1
Data set [5] concerns the target BCL-2 (Homo sapiens (Human), UniProt P10415). Description: Protein-protein interaction assay BCL-2/Bad BH3 peptide (BCL-2 assay, TR-FRET). It counts as binding. Particulars: His-BCL-2 / Bad BH3 peptide, median. In a few lines:
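His-BCL-2 (1-211, E. coli) at 1 nM preincubated 10 min at 22 °C with compound (11 concentrations, 0.1 nM-20 μM, duplicates), then 1 nM biotinylated Bad BH3 peptide added. After 1 h at 22 °C plus overnight at 4 °C, TR-FRET 665/620 ratio normalised to DMSO and no-BCL-2 controls, IC50 from 4-parameter fit.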
A general note: Time-resolved FRET reads energy transfer from a long-lived donor to a nearby acceptor.

Each structure is given as a SMILES string. Several values for one entry are separate records, joined by “and”; a condition that tells them apart may be missing. Identical values can stand only once. Counter-ions that a name gives are not always drawn. Like-named read-outs stand apart in the source and are kept apart here.

Consider 12 compounds from patent US11401278B2, “Macrocyclic indole derivatives” (The Broad Institute, Inc., priority 2017, dated 2022).

Broadly, the IC50 is the concentration at which inhibition is half-maximal. What is called EC50 is the concentration at which the effect is half-maximal. A higher EC50 goes with a need for much substance.

Sequence of BCL-2 (P10415 other isoform, or with tags, fused parts or gaps): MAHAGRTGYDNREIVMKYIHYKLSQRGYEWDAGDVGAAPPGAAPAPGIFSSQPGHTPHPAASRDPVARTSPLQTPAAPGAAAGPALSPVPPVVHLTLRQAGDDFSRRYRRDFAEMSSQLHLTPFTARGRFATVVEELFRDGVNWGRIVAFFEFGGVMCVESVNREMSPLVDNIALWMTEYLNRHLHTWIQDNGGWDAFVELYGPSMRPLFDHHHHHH

With `Cc1c2c(nn1C)C(CCN1CCOCC1)N(C)S(=O)(=O)CCCn1c(C(=O)O)c(CCCOc3cccc4cc(F)ccc34)c3ccc(Cl)c-2c31` (racemic) [Example 65, (rac)-4-chloro-7-{3-[(6-fluoronaphthalen-1-yl)oxy]propyl}-2,3,14-trimethyl-15-(rac)-[2-(morpholin-4-yl)ethyl]-13,13-dioxo-10,11,12,13,14,15-hexahydro-2H-13lambda^6-pyrazolo[3′,4′:4,5][1,2,8]thiadiazacycloundecino[6,7,8-hi]indole-8-carboxylic acid (Mixture of Stereoisomers)], the IC50 in data set [1] (72 h) was 1.5e-06 M; in data set [2], 5.8e-08 M; in data set [4], 6e-08 M; in data set [5], over 20 µM. In data set [3], this compound registered an EC50 of 0.047 µM.

For the compound `CCc1c2c(nn1C)CN(C)S(=O)(=O)CCCn1c(C(=O)O)c(CCCOc3cccc4cc(F)ccc34)c3ccc(Cl)c-2c31` (single isomer, unassigned; enantiomer 1) [Example 36, (+)-4-chloro-3-ethyl-7-{3-[(6-fluoronaphthalen-1-yl)oxy]propyl}-2,14-dimethyl-13,13-dioxo-10,11,12,13,14,15-hexahydro-2H-13lambda^6-pyrazolo[3′,4′:4,5][1,2,8]thiadiazacycloundecino-[6,7,8-hi]indole-8-carboxylic acid (Enantiomer 1)], the IC50 in data set [1] (72 hours) was 1.7e-06 M and 1.9e-06 M; in data set [2], 1.6e-07 M; in data set [4] it was 1.4e-07 M; in data set [5], 18 µM. The compound further had an EC50 in data set [3] of 0.085 µM.

For the compound `Cc1c2c(nn1C)CN(C)S(=O)(=O)CCCn1c(C(=O)O)c(CCCOc3cccc4cc(F)ccc34)c3ccc(F)c-2c31` (single isomer, unassigned; enantiomer 1) [Example 38, (−)-4-fluoro-7-{3-[(6-fluoronaphthalen-1-yl)oxy]propyl}-2,3,14-trimethyl-13,13-dioxo-10,11,12,13,14,15-hexahydro-2H-13lambda^6-pyrazolo[3′,4′:4,5][1,2,8]thiadiazacycloundecino-[6,7,8-hi]indole-8-carboxylic acid (Enantiomer 1)], the IC50 in data set [1] (72 hours) was 2.7e-05 M; in data set [2], 1.7e-05 M; in data set [4], 7.8e-06 M; in data set [5] it was over 20 µM. Further, the response in data set [3] was half-maximal at 20 µM (EC50).

Consider `Cc1c2c(nn1C)CN(C1CC1)S(=O)(=O)CCCn1c(C(=O)O)c(CCCOc3cccc4cc(F)ccc34)c3ccc(Cl)c-2c31` (single isomer, unassigned; enantiomer 1) [Example 42, (−)-4-chloro-14-cyclopropyl-7-{3-[(6-fluoro-1-naphthyl)oxy]propyl}-2,3-dimethyl-11,12,14,15-tetrahydro-2H,10H-pyrazolo[3′,4′:4,5][1,2,8]thiadiazacycloundecino[6,7,8-hi]indole-8-carboxylic acid 13,13-dioxide N-diethylamine salt (Enantiomer 1)], for which the IC50 was 5.9e-06 M and 3.8e-06 M in data set [1] (72 hours); 3e-07 M in data set [2]; 2.7e-07 M in data set [4]; 12 µM in data set [5]. The compound further yielded an EC50 in data set [3] of 0.19 µM.

On to `Cc1c2c(nn1C)C(CCN1CCOCC1)N(C)S(=O)(=O)CCCn1c(C(=O)O)c(CCCOc3cccc4ccccc34)c3cccc-2c31` (single isomer, unassigned; enantiomer 1) [Example 45, 2,3,14-trimethyl-15-[2-(morpholin-4-yl)ethyl]-7-{3-[(naphthalen-1-yl)oxy]propyl}-13,13-dioxo-10,11,12,13,14,15-hexahydro-2H-13lambda^6-pyrazolo[3′,4′:4,5][1,2,8]thiadiazacycloundecino[6,7,8-hi]indole-8-carboxylic acid N-ethylethanamine Salt (Enantiomer 1)], for which the IC50 in data set [1] (72 hours) was over 3.3e-05 M; in data set [2], 2e-05 M; in data set [4], 1.7e-05 M; in data set [5] it was over 20 µM. Also, the midpoint of the response in data set [3], the EC50, lay at 27 µM.

Turning to `CCc1c2c(nn1C)CN(CC)S(=O)(=O)CCCn1c(C(=O)O)c(CCCOc3cccc4cc(F)ccc34)c3ccc(Cl)c-2c31` (single isomer, unassigned; enantiomer 1) [Example 57, (+)-4-chloro-3,14-diethyl-7-{3-[(6-fluoronaphthalen-1-yl)oxy]propyl}-2-methyl-13,13-dioxo-10,11,12,13,14,15-hexahydro-2H-13lambda^6-pyrazolo[3′,4′:4,5][1,2,8]thiadiazacycloundecino[6,7,8-hi]indole-8-carboxylic acid N-ethylethanamine Salt (Enantiomer 1)], the IC50 is 9.1e-07 M and 1.3e-06 M in data set [1] (72 hours); 1.1e-07 M in data set [2]; 5.8e-08 M in data set [4]; 12 µM in data set [5]. In data set [3], this compound showed an EC50 of 0.12 µM.

For the compound `Cc1c2c(nn1C)C(CCN1CCOCC1)N(C)S(=O)(=O)CCCn1c(C(=O)O)c(CCCOc3cccc4cc(F)ccc34)c3ccc(Cl)c-2c31` (single isomer, unassigned; enantiomer 1) [Example 66, 4-chloro-7-{3-[(6-fluoronaphthalen-1-yl)oxy]propyl}-2,3,14-trimethyl-15-[2-(morpholin-4-yl)ethyl]-13,13-dioxo-10,11,12,13,14,15-hexahydro-2H-13lambda^6-pyrazolo[3′,4′:4,5][1,2,8]thiadiazacycloundecino[6,7,8-hi]indole-8-carboxylic acid (Enantiomer 1)], the IC50 in data set [1] (72 hours) was over 3.3e-05 M; in data set [2], 3.3e-06 M; in data set [4] it was 4e-06 M; in data set [5] it was over 20 µM. A half-maximal response in data set [3] (EC50) required 3.5 µM.

As to `CCc1c2c(nn1C)CN(C)S(=O)(=O)CCCn1c(C(=O)O)c(CCCOc3cccc4cc(F)ccc34)c3ccc(Cl)c-2c31` (single isomer, unassigned; enantiomer 2) [Example 37, (−)-4-chloro-3-ethyl-7-{3-[(6-fluoronaphthalen-1-yl)oxy]propyl}-2,14-dimethyl-13,13-dioxo-10,11,12,13,14,15-hexahydro-2H-13lambda^6-pyrazolo[3′,4′:4,5][1,2,8]thiadiazacycloundecino-[6,7,8-hi]indole-8-carboxylic acid (Enantiomer 2)], the IC50 was 1.9e-05 M in data set [1] (72 hours), 5.7e-06 M in data set [2], 2.2e-06 M in data set [4] and 20 µM in data set [5]. In data set [3], this compound came in with a concentration giving a half-maximal response (EC50) of 5 µM.

Regarding `Cc1c2c(nn1C)CN(C)S(=O)(=O)CCCn1c(C(=O)O)c(CCCOc3cccc4cc(F)ccc34)c3ccc(F)c-2c31` (single isomer, unassigned; enantiomer 2) [Example 39, (+)-4-fluoro-7-{3-[(6-fluoronaphthalen-1-yl)oxy]propyl}-2,3,14-trimethyl-13,13-dioxo-10,11,12,13,14,15-hexahydro-2H-13lambda^6-pyrazolo[3′,4′:4,5][1,2,8]thiadiazacycloundecino-[6,7,8-hi]indole-8-carboxylic acid (Enantiomer 2)], the IC50 is 3.3e-06 M and 5.1e-06 M in data set [1] (72 hours); 4.5e-07 M in data set [2]; 5.4e-07 M in data set [4]; over 20 µM in data set [5]. This compound yielded an EC50 in data set [3] of 0.35 µM.

Take `Cc1c2c(nn1C)CN(C1CC1)S(=O)(=O)CCCn1c(C(=O)O)c(CCCOc3cccc4cc(F)ccc34)c3ccc(Cl)c-2c31` (single isomer, unassigned; enantiomer 2) [Example 43, (+)-4-chloro-14-cyclopropyl-7-{3-[(6-fluoro-1-naphthyl)oxy]propyl}-2,3-dimethyl-11,12,14,15-tetrahydro-2H,10H-pyrazolo[3′,4′:4,5][1,2,8]thiadiazacycloundecino[6,7,8-hi]indole-8-carboxylic acid 13,13-dioxide N-diethylamine salt (Enantiomer 2)]: the IC50 in data set [1] (72 hours) was over 3.3e-05 M; in data set [2], 9.6e-06 M; in data set [4] it was 7e-06 M; in data set [5], over 20 µM. This compound came in with a concentration for a half-maximal effect (EC50) in data set [3] of 6.1 µM.

On to `Cc1c2c(nn1C)CNS(=O)(=O)CCCn1c(C(=O)O)c(CCCOc3cccc4cc(F)ccc34)c3ccc(Cl)c-2c31` (single isomer, unassigned; enantiomer 2) [Example 52, 4-chloro-7-{3-[(6-fluoronaphthalen-1-yl)oxy]propyl}-2,3-dimethyl-13,13-dioxo-10,11,12,13,14,15-hexahydro-2H-13lambda^6-pyrazolo[3′,4′:4,5][1,2,8]thiadiazacycloundecino[6,7,8-hi]indole-8-carboxylic acid (Enantiomer 2)], for which the IC50 in data set [1] (72 hours) was over 3.3e-05 M; in data set [2], 1.7e-05 M; in data set [4] it was 2e-05 M; in data set [5], over 20 µM. Also, in data set [3], a half-maximal effect (EC50) was put at 27 µM.

For `CCc1c2c(nn1C)C(CCC1CCOCC1)N(C)S(=O)(=O)CCCn1c(C(=O)O)c(CCCOc3cccc4cc(F)ccc34)c3ccc(Cl)c-2c31` (single isomer, unassigned; enantiomer 2) [Example 62, (−)-4-chloro-3-ethyl-7-{3-[(6-fluoronaphthalen-1-yl)oxy]propyl}-2,14-dimethyl-15-[2-(oxan-4-yl)ethyl]-13,13-dioxo-10,11,12,13,14,15-hexahydro-2H-13lambda^6-pyrazolo[3′,4′:4,5][1,2,8]thiadiazacycloundecino[6,7,8-hi]indole-8-carboxylic acid (Enantiomer 2)], the IC50 in data set [1] (72 hours) is 2.1e-05 M; in data set [2], 5.3e-06 M; in data set [4], 3.7e-06 M; in data set [5], 14 µM. For the same compound, the midpoint of the response in data set [3], the EC50, lay at 4.1 µM.
